Assay results taken from PubChem BioAssay AID1963451 (Molecular Pharmacology Branch, DTP, NCI, 2024).

Tested on: 521955-158-R6-J3-PDC complex spheroid growth, % test/control
Experiment: Anticancer human tumor 521955-158-R6-J3-PDC patient-derived pancreatic carcinoma cell line growth inhibition [Asc]
Conditions: for IC50: curve of first compound; for viability, T/C: stronger effect = lower value
Procedure, shortened: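 Tumor cells were grown as complex spheroids with human endothelial cells (HUVEC) and human mesenchymal stem cells as stroma. Agents were tested alone and in combination, in half-log steps down from the clinical Cmax, or from 10 microM where Cmax was unknown.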
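Further: spheroids exposed to compounds for 7 days.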
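Wherever viability, T/C is given: 100% = DMSO vehicle control wells.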

Compound COc1c(OCCCN2CCOCC2)ccc2c3n(c(=NC(=O)c4cnc(N)nc4)nc12)CCN3 + CNC(C)C(=O)NC1CN(S(=O)(=O)c2cccc(S(=O)(=O)N3CCC4CCC(C(=O)NC(c5ccccc5)c5ccccc5)N4C(=O)C(NC(=O)C(C)NC)C3)c2)CCC2CCC(C(=O)NC(c3ccccc3)c3ccccc3)N2C1=O has an IC50 (second compound 0.00316 µM) of 113 nM, an IC50 (second compound 0.01 µM) of 67.5 nM and an IC50 (second compound 0.0316 µM) of 69.3 nM. The IC50 (second compound 0.1 µM) was 74.5 nM, the IC50 (second compound 0.316 µM) was 75.2 nM and the IC50 (second compound 1 µM) was 50.9 nM. For the same compound, the viability, T/C (second compound 0.00316 µM, first compound 0.00316 µM) was 81.4%, the viability, T/C (second compound 0.00316 µM, first compound 0.01 µM) was 62.2% and the viability, T/C (second compound 0.00316 µM, first compound 0.0316 µM) was 60.6%. The viability, T/C (second compound 0.00316 µM, first compound 0.1 µM) was 55.5%, the viability, T/C (second compound 0.00316 µM, first compound 0.316 µM) was 41.2% and the viability, T/C (second compound 0.00316 µM, first compound 1 µM) was 23.8%. For the same compound, the viability, T/C (second compound 0.01 µM, first compound 0.00316 µM) was 83.7%, the viability, T/C (second compound 0.01 µM, first compound 0.01 µM) was 67.5% and the viability, T/C (second compound 0.01 µM, first compound 0.0316 µM) was 54.4%. For the same compound, the viability, T/C (second compound 0.01 µM, first compound 0.1 µM) was 47%, the viability, T/C (second compound 0.01 µM, first compound 0.316 µM) was 40.9% and the viability, T/C (second compound 0.01 µM, first compound 1 µM) was 26.4%. The viability, T/C (second compound 0.0316 µM, first compound 0.00316 µM) was 80.9%, the viability, T/C (second compound 0.0316 µM, first compound 0.01 µM) was 63.9% and the viability, T/C (second compound 0.0316 µM, first compound 0.0316 µM) was 54.4%. For the same compound, the viability, T/C (second compound 0.0316 µM, first compound 0.1 µM) was 49.7%, the viability, T/C (second compound 0.0316 µM, first compound 0.316 µM) was 41.9% and the viability, T/C (second compound 0.0316 µM, first compound 1 µM) was 26.6%. The viability, T/C (second compound 0.1 µM, first compound 0.00316 µM) was 87.2%, the viability, T/C (second compound 0.1 µM, first compound 0.01 µM) was 61.9% and the viability, T/C (second compound 0.1 µM, first compound 0.0316 µM) was 59.5%. The viability, T/C (second compound 0.1 µM, first compound 0.1 µM) was 50%, the viability, T/C (second compound 0.1 µM, first compound 0.316 µM) was 38.4% and the viability, T/C (second compound 0.1 µM, first compound 1 µM) was 27.7%. For the same compound, the viability, T/C (second compound 0.316 µM, first compound 0.00316 µM) was 68.9%, the viability, T/C (second compound 0.316 µM, first compound 0.01 µM) was 66.6% and the viability, T/C (second compound 0.316 µM, first compound 0.0316 µM) was 52.5%. It also gave a viability, T/C (second compound 0.316 µM, first compound 0.1 µM) of 48.5%, a viability, T/C (second compound 0.316 µM, first compound 0.316 µM) of 40.5% and a viability, T/C (second compound 0.316 µM, first compound 1 µM) of 24.9%. It also gave a viability, T/C (second compound 1 µM, first compound 0.00316 µM) of 77.1%, a viability, T/C (second compound 1 µM, first compound 0.01 µM) of 56.4% and a viability, T/C (second compound 1 µM, first compound 0.0316 µM) of 53%. For the same compound, the viability, T/C (second compound 1 µM, first compound 0.1 µM) was 49.1%, the viability, T/C (second compound 1 µM, first compound 0.316 µM) was 37.2% and the viability, T/C (second compound 1 µM, first compound 1 µM) was 24.3%.
